PubChem BioAssay AID276 (DTP/NCI, 2004)
Several values for one entry are separate records, joined by “and”; a condition that tells them apart may be missing. Equal entries are not always repeated. Toxic doses and inconclusive results are not listed. Rule for the calls: active = survival T/C of 150% or more; inactive = T/C below 125% in these data.

Test system: B6C3F1 mice, Lewis lung carcinoma iv, survival T/C
Test: NCI In Vivo Anticancer Drug Screen. Data for tumor model Lewis Lung Carcinoma (intravenous) in B6C3F1 mice
Conditions: endpoint: median survival time, higher = longer survival
In short: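 Transplantable tumor in mice; compound treated vs vehicle controls; read-out survival; value = treated/control (T/C).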

[1] = dose: 25.0 mg/kg/injection, schedule: Q01DX009 (ip), vehicle: saline with Tween-80
[2] = dose: 50.0 mg/kg/injection, schedule: Q01DX009 (ip), vehicle: saline with Tween-80
[3] = dose: 100.0 mg/kg/injection, schedule: Q01DX009 (ip), vehicle: saline with Tween-80
[4] = dose: 100.0 mg/kg/injection, schedule: Q01DX009 (ip), vehicle: Klucel (hydroxypropylcellulose) (HPC)
[5] = dose: 200.0 mg/kg/injection, schedule: Q01DX009 (ip), vehicle: Klucel (hydroxypropylcellulose) (HPC)
[6] = dose: 400.0 mg/kg/injection, schedule: Q01DX009 (ip), vehicle: Klucel (hydroxypropylcellulose) (HPC)
[7] = dose: 50.0 mg/kg/injection, schedule: Q01DX009 (ip), vehicle: Klucel (hydroxypropylcellulose) (HPC)
[8] = dose: 6.25 mg/kg/injection, schedule: Q01DX009 (ip), vehicle: water
[9] = dose: 12.5 mg/kg/injection, schedule: Q01DX009 (ip), vehicle: water
[10] = dose: 25.0 mg/kg/injection, schedule: Q01DX009 (ip), vehicle: water

Measured: T/C

Nc1nc(-c2ccccc2)c(Br)c(=O)[nH]1
inactive: [1] 114 % of control | [2] 107 % of control | [3] 110 % of control | dose: 200.0 mg/kg/injection, schedule: Q01DX009 (ip), vehicle: saline with Tween-80 92 % of control and 121 % of control | dose: 400.0 mg/kg/injection, schedule: Q01DX009 (ip), vehicle: saline with Tween-80 100 % of control and 118 % of control | dose: 800.0 mg/kg/injection, schedule: Q01DX009 (ip), vehicle: saline with Tween-80 100 % of control

CC12CC(C(=O)O)C3(O)CC(C)(C1)CC(C)(C2)C3 (stereo unspecified) (tested in a mixture with another compound)
inactive: [4] 124 % of control | [5] 114 % of control | [6] 98 % of control

C=C(C)C1C2CC3(C)C4(CO4)C4OC4C3(O)C1C(=O)O2 (stereo unspecified)
inactive: dose: 0.25 mg/kg/injection, schedule: Q01DX008 (ip), vehicle: Klucel (hydroxypropylcellulose) (HPC) 108 % of control | dose: 0.5 mg/kg/injection, schedule: Q01DX008 (ip), vehicle: Klucel (hydroxypropylcellulose) (HPC) 102 % of control | dose: 1.0 mg/kg/injection, schedule: Q01DX008 (ip), vehicle: Klucel (hydroxypropylcellulose) (HPC) 108 % of control | dose: 2.0 mg/kg/injection, schedule: Q01DX008 (ip), vehicle: Klucel (hydroxypropylcellulose) (HPC) 105 % of control

CCN(CC)c1ccc2[nH]c3c(C(N)=O)cc(=O)c(=O)c=3oc2c1
inactive: dose: 12.5 mg/kg/injection, schedule: Q01DX009 (ip), vehicle: saline with Tween-80 90 % of control | [1] 107 % of control | [2] 98 % of control | [3] 93 % of control

CCOC(=O)CNC(=O)CCCCSc1ncnc2nc[nH]c12
inactive: dose: 40.0 mg/kg/injection, schedule: Q01DX009 (ip), vehicle: Klucel (hydroxypropylcellulose) (HPC) 101 % of control | dose: 80.0 mg/kg/injection, schedule: Q01DX009 (ip), vehicle: Klucel (hydroxypropylcellulose) (HPC) 112 % of control | dose: 160.0 mg/kg/injection, schedule: Q01DX009 (ip), vehicle: Klucel (hydroxypropylcellulose) (HPC) 110 % of control | dose: 320.0 mg/kg/injection, schedule: Q01DX009 (ip), vehicle: Klucel (hydroxypropylcellulose) (HPC) 95 % of control | dose: 640.0 mg/kg/injection, schedule: Q01DX009 (ip), vehicle: Klucel (hydroxypropylcellulose) (HPC) 111 % of control

CN(C)C(=O)SC1=C(c2c(Cl)cccc2Cl)C(=O)c2ccccc21
inactive: dose: 25.0 mg/kg/injection, schedule: Q01DX009 (ip), vehicle: Klucel (hydroxypropylcellulose) (HPC) 102 % of control | [7] 110 % of control | [4] 105 % of control | [5] 108 % of control

CC1(C)CC23C4COC(=O)C2CCC1C3CC4=O (stereo unspecified)
inactive: dose: 3.0 mg/kg/injection, schedule: Q01DX009 (ip), vehicle: DMSO 103 % of control | dose: 6.0 mg/kg/injection, schedule: Q01DX009 (ip), vehicle: DMSO 97 % of control and 99 % of control | dose: 12.0 mg/kg/injection, schedule: Q01DX009 (ip), vehicle: DMSO 100 % of control and 102 % of control | dose: 24.0 mg/kg/injection, schedule: Q01DX009 (ip), vehicle: DMSO 95 % of control and 124 % of control | dose: 48.0 mg/kg/injection, schedule: Q01DX009 (ip), vehicle: DMSO 103 % of control and 106 % of control | dose: 96.0 mg/kg/injection, schedule: Q01DX009 (ip), vehicle: DMSO 102 % of control | dose: 192.0 mg/kg/injection, schedule: Q01DX009 (ip), vehicle: DMSO 98 % of control

CC1C=NNC1=O (stereo unspecified)
inactive: [7] 103 % of control | [4] 103 % of control | [5] 113 % of control | [6] 121 % of control | dose: 800.0 mg/kg/injection, schedule: Q01DX009 (ip), vehicle: Klucel (hydroxypropylcellulose) (HPC) 118 % of control

CC(=O)NC(C=O)OCC=O (stereo unspecified)
inactive: [8] 111 % of control | [9] 104 % of control | [10] 97 % of control | dose: 50.0 mg/kg/injection, schedule: Q01DX009 (ip), vehicle: water 97 % of control | dose: 100.0 mg/kg/injection, schedule: Q01DX009 (ip), vehicle: water 91 % of control | dose: 200.0 mg/kg/injection, schedule: Q01DX009 (ip), vehicle: water 103 % of control

CCCCCCCCCCCCN1C(C)=CS/C1=C\C=C\c1scc(C)[n+]1CCCCCCCCCCCC
inactive: dose: 1.56 mg/kg/injection, schedule: Q01DX009 (ip), vehicle: saline with Tween-80 90 % of control

CC1(C)OCC2OC=CC(=O)C2O1 (stereo unspecified)
inactive: dose: 25.0 mg/kg/injection, schedule: Q01DX009 (ip), vehicle: saline 98 % of control | dose: 50.0 mg/kg/injection, schedule: Q01DX009 (ip), vehicle: saline 98 % of control | dose: 100.0 mg/kg/injection, schedule: Q01DX009 (ip), vehicle: saline 105 % of control | dose: 200.0 mg/kg/injection, schedule: Q01DX009 (ip), vehicle: saline 102 % of control | dose: 400.0 mg/kg/injection, schedule: Q01DX009 (ip), vehicle: saline 104 % of control

O=[Te]=O
inactive: dose: 3.0 mg/kg/injection, schedule: Q01DX009 (ip), vehicle: suspension in saline 121 % of control | dose: 3.12 mg/kg/injection, schedule: Q01DX009 (ip), vehicle: saline 102 % of control | dose: 6.0 mg/kg/injection, schedule: Q01DX009 (ip), vehicle: suspension in saline 101 % of control | dose: 6.25 mg/kg/injection, schedule: Q01DX009 (ip), vehicle: saline 100 % of control | dose: 12.0 mg/kg/injection, schedule: Q01DX009 (ip), vehicle: suspension in saline 101 % of control | dose: 12.5 mg/kg/injection, schedule: Q01DX009 (ip), vehicle: saline 106 % of control | dose: 24.0 mg/kg/injection, schedule: Q01DX009 (ip), vehicle: suspension in saline 106 % of control | dose: 48.0 mg/kg/injection, schedule: Q01DX009 (ip), vehicle: suspension in saline 115 % of control

C[n+]1c(-c2cccc(OCCOCCOc3cccc(-c4c5cc(N)ccc5c5ccc(N)cc5[n+]4C)c3)c2)c2cc(N)ccc2c2ccc(N)cc21
inactive: dose: 0.5 mg/kg/injection, schedule: Q01DX009 (ip), vehicle: water 105 % of control | dose: 0.75 mg/kg/injection, schedule: Q01DX009 (ip), vehicle: saline with Tween-80 103 % of control | dose: 1.0 mg/kg/injection, schedule: Q01DX009 (ip), vehicle: water 96 % of control | dose: 1.5 mg/kg/injection, schedule: Q01DX009 (ip), vehicle: saline with Tween-80 102 % of control | dose: 2.0 mg/kg/injection, schedule: Q01DX009 (ip), vehicle: water 100 % of control | dose: 3.0 mg/kg/injection, schedule: Q01DX009 (ip), vehicle: saline with Tween-80 99 % of control | dose: 4.0 mg/kg/injection, schedule: Q01DX009 (ip), vehicle: water 100 % of control and 105 % of control | dose: 6.0 mg/kg/injection, schedule: Q01DX009 (ip), vehicle: saline with Tween-80 108 % of control | dose: 8.0 mg/kg/injection, schedule: Q01DX009 (ip), vehicle: water 105 % of control and 110 % of control | dose: 16.0 mg/kg/injection, schedule: Q01DX009 (ip), vehicle: water 116 % of control

O=c1[nH]cc(F)c(=O)[nH]1
inactive: dose: 5.0 mg/kg/injection, schedule: Q01DX009 (ip), vehicle: saline 105 % of control | dose: 10.0 mg/kg/injection, schedule: Q01DX009 (ip), vehicle: saline 97 % of control and 102 % of control | dose: 20.0 mg/kg/injection, schedule: Q01DX009 (ip), vehicle: saline 107 % of control

NC(=O)/C=C/c1c[nH]c2nccnc12
inactive: dose: 1.56 mg/kg/injection, schedule: Q01DX009 (ip), vehicle: water 94 % of control | dose: 3.12 mg/kg/injection, schedule: Q01DX009 (ip), vehicle: water 88 % of control | [8] 92 % of control | [9] 94 % of control | [10] 94 % of control
